We go through twelve molecules from patent US4847254A, “CNS affecting 5-oxy-3-aminomethyl-dihydro-benzofurans and benzothiophenes” (H. Lundbeck A/S, priority 1987, dated 1989).

The subject of one assay is DA-autoreceptors. The assay can be described thus: Inhibition of spontaneous locomotor activity (motility inhibition) in rats. The assay is classed as in vivo, rat (Wistar). To be noted: doses calculated as the free amine.
Assay [1] relates to postsynaptic DA-receptors. Kind of assay: Reversal of locomotor depression (hypomotility) in reserpine plus alpha-methyl-p-tyrosine pretreated rats. Type of assay: in vivo, rat (Wistar).
Assay [2] has as its system postsynaptic DA-receptors. To be noted: reversal of locomotor depression in DA-depleted rats; statement in words; cited from earlier work.
The subject of the next assay is DA-receptor. Kind of assay: Contralateral circling in rats with unilateral 6-hydroxy-DA (6-OHDA) lesions. To be noted: 6-OHDA-lesioned rats, doses calculated as the free amine. The assay is classed as in vivo, rat (Wistar). As for the experimental part:
Furthermore, the potency of the drug to induce contralateral circling behaviour in 6-hydroxy-DA-lesioned rats was determined. The specificity of this receptor resembles that of the […] DA receptors mediating motility inhibition.
The experiments were made according to published methods, using rats of the Wistar strain.
Therefore, also the ability of a test compound to induce contralateral circling in rats with unilateral 6-hydroxy-DA lesions was evaluated (loc cit.).

For assay [3], the system named is presynaptic DA-receptors (DA-autoreceptors). To be noted: cited from earlier work.
For a further assay, the system named is DA receptors. The assay can be described thus: DA stimulating properties / effect at pre- and postsynaptic DA receptors (general statement). Type of assay: in vivo. To be noted: statement in words.

The structures appear in SMILES notation.

In the case of `CCCN1CCC[C@@H](c2cccc(O)c2)C1` [(--)-3-PPP, reference compound], the “Motility Inh. rats (sc) ED50” value in the assay with DA-autoreceptors is 4.2 to 11 µmol/kg. Besides, the “Reserpin α-Mt Rev. rats (sc) ED50” value in assay [1] was greater than 67 µmol/kg. Further, the “effect in reserpine plus alpha-methyl-p-tyrosine model” value in assay [2] is listed as “without effect”. Further, in the assay on DA-receptor, the “6-OHDA Contr. Circle. rats (sc) ED50” value is 0.77 µmol/kg.

For the molecule `CN1CCc2cccc3c2[C@H]1Cc1ccc(O)c(O)c1-3` [Apomorphine, apomorphine, reference compound], the “Motility Inh. rats (sc) ED50” value in the assay on DA-autoreceptors was 0.64 µmol/kg. Besides, the “Reserpin α-Mt Rev. rats (sc) ED50” value in assay [1] was determined as 0.27 µmol/kg. Also, the “6-OHDA Contr. Circle. rats (sc) ED50” value in the assay with DA-receptor is 0.06 µmol/kg. Besides, the “clinical success at low doses” value in assay [3] (low doses, patients with schizophrenia and tardive dyskinesias) is recorded as “used with some success”. The “selectivity of action at DA autoreceptors vs postsynaptic DA receptors” value in assay [3] (postsynaptic DA receptors stimulated by slightly higher doses) was “no selective action at DA autoreceptors”.

As for `CCCN(CCC)CC1CCc2ccccc21` (stereo not drawn) [Lu 21-091, N,N-Dipropyl-1-indanmethylamine], the “Motility Inh. rats (sc) ED50” value in the assay on DA-autoreceptors is greater than 62 µmol/kg. The DA stimulating properties result in the assay with DA receptors is listed as “without any DA stimulating properties”. For the same molecule, the “6-OHDA Contr. Circle. rats (sc) ED50” value with DA-receptor is greater than 62 µmol/kg.

Consider `CCCN(CCc1ccccc1)CC1CCc2ccc(O)cc21` (stereo not drawn) [Lu 21-113, 6-Hydroxy-N-propyl-N-(2-phenylethyl)-1-indanmethylamine], for which the “Motility Inh. rats (sc) ED50” value with DA-autoreceptors is 0.51 µmol/kg. The “Reserpin α-Mt Rev. rats (sc) % at 5 μmol/kg” value in assay [1] is on record as 63%. Moreover, the “6-OHDA Contr. Circle. rats (sc) ED50” value in the assay on DA-receptor is 0.12 µmol/kg.

As to `CCCN(CCC)CC1COc2ccc(O)cc21` (stereo not drawn) [Lu 23-130, 5-Hydroxy-2,3-dihydro-N,N-dipropyl-3-benzofuranmethylamine], in the assay on DA-autoreceptors, the “Motility Inh. rats (sc) ED50” value is 0.5 to 2 µmol/kg. The “Reserpin α-Mt Rev. rats (sc) ED50” value in assay [1] was 3.4 µmol/kg. In addition, the “6-OHDA Contr. Circle. rats (sc) ED50” value with DA-receptor is 0.35 µmol/kg.

Take `CCCN(CCc1ccccc1)CC1COc2ccc(O)cc21` (stereo not drawn) [Lu 24-084, 5-Hydroxy-2,3-dihydro-N-(2-phenylethyl)-N-propyl-3-benzofuranmethylamine]: the “Motility Inh. rats (sc) ED50” value with DA-autoreceptors is 1.9 µmol/kg. In addition, the “Reserpin α-Mt Rev. rats (sc) ED50” value in assay [1] amounted to 11 µmol/kg. Besides, the “6-OHDA Contr. Circle. rats (sc) ED50” value in the assay with DA-receptor is 0.94 µmol/kg.

Consider `CCN(CC)CC1COc2ccc(O)cc21` (stereo not drawn) [Lu 24-088, 5-Hydroxy-2,3-dihydro-N,N-diethyl-3-benzofuranmethylamine], for which, in the assay on DA-autoreceptors, the “Motility Inh. rats (sc) ED50” value is 1.7 µmol/kg. For the same molecule, in assay [1], the “Reserpin α-Mt Rev. rats (sc) % at 5 μmol/kg” value stood at 13%. In addition, the “6-OHDA Contr. Circle. rats (sc) ED50” value in the assay with DA-receptor is 1.2 µmol/kg.

In the case of `CCCN(CCC)CC1CSc2ccc(O)cc21` (stereo not drawn) [Lu 24-100, 5-Hydroxy-2,3-dihydroxy-N,N-dipropyl-3-benzothiophenmethylamine], the “Motility Inh. rats (sc) ED50” value in the assay on DA-autoreceptors was 3.0 µmol/kg. In assay [1], the “Reserpin α-Mt Rev. rats (sc) ED50” value turned out to be 20 µmol/kg. Also, the “6-OHDA Contr. Circle. rats (sc) ED50” value with DA-receptor is 4.6 µmol/kg.

For `CCCN(CCO)CC1COc2ccc(O)cc21` (stereo not drawn) [Lu 24-102, 5-Hydroxy-2,3-dihydro-N-(2-hydroxyethyl)-N-propyl-3-benzofuranmethylamine], the “Motility Inh. rats (sc) ED50” value in the assay with DA-autoreceptors was 5.4 µmol/kg. The “Reserpin α-Mt Rev. rats (sc) ED50” value in assay [1] came to 19 µmol/kg. Moreover, the “6-OHDA Contr. Circle. rats (sc) ED50” value in the assay on DA-receptor was 2.1 µmol/kg.

For the molecule `CCCN(C)CC1COc2ccc(O)cc21` (stereo not drawn) [Lu 24-103, 5-Hydroxy-2,3-dihydro-N-methyl-N-propyl-3-benzofuranmethylamine], in the assay with DA-autoreceptors, the “Motility Inh. rats (sc) ED50” value was 4.5 µmol/kg. Further, in assay [1], the “Reserpin α-Mt Rev. rats (sc) ED50” value turned out to be 290 µmol/kg. The “6-OHDA Contr. Circle. rats (sc) ED50” value in the assay on DA-receptor is 1.2 µmol/kg.

For `CCCN(CCc1cccs1)CC1COc2ccc(O)cc21` (stereo not drawn) [Lu 24-155, 5-Hydroxy-2,3-dihydro-N-propyl-N-(2-thienyl-2-ethyl)-3-benzofuranmethylamine], the “Motility Inh. rats (sc) ED50” value in the assay on DA-autoreceptors is 7.0 µmol/kg. The “Reserpin α-Mt Rev. rats (sc) ED50” value in assay [1] came out at 28 µmol/kg. Also, in the assay on DA-receptor, the “6-OHDA Contr. Circle. rats (sc) ED50” value was 1.2 µmol/kg.

For the molecule `CCCN(C)CC1CCc2ccc(O)cc21` (stereo not drawn) [Lu 25-009, 6-Hydroxy-N-methyl-N-propyl-1-indanmethylamine], in the assay with DA-autoreceptors, the “Motility Inh. rats (sc) ED50” value was 0.65 µmol/kg. Moreover, the “Reserpin α-Mt Rev. rats (sc) ED50” value in assay [1] was 66 µmol/kg. In addition, in the assay on DA-receptor, the “6-OHDA Contr. Circle. rats (sc) ED50” value is 0.82 µmol/kg.
